Tested on: MV4-11
Experiment: 7-day proliferation assay (WST-8), cell growth inhibition
Type: cell-based
Settings: Homo sapiens, MV4-11, 168 h, MV4-11 cells, 7 days
Experimental: The effect of representative Compounds of the Disclosure on cell viability was determined in a 7-day proliferation assay. Cells were maintained in the appropriate culture medium with 10% FBS at 37° C. and an atmosphere of 5% CO2.
Cells were seeded in 96-well flat bottom (Corning COSTAR, Corning, NY, cat#3595) at a density of 2,000-3,000 cells/well in 100 μl of culture medium. Compounds were serially diluted in the appropriate medium, and […] the diluted compounds were added to the appropriate wells of the cell plate. After the addition of compounds, the cells were incubated at 37° C. in an atmosphere of 5% CO2 for 7 days. Cell viability was determined using the WST (2-(2-methoxy-4-nitrophenyl)-3-(4-nitrophenyl)-5-(2,4-disulfophenyl)-2H-tetrazolium, monosodium salt) Cell Counting-8 Kit (Dojindo Molecular Technologies, Inc., Rockville, Md.) according to the manufacturers' instructions.
WST-8 reagent was added to each well at a final concentration of 10% (v/v), and then the plates were incubated at 37° C. for 1-2 hours for color development. The absorbance was measured at 450 nm using a SPECTRAmax PLUS plate reader (Molecular Devices, Sunnyvale, Calif.). The readings were normalized to the DMSO-treated cells and the half maximal inhibitory concentration (IC50) was calculated by nonlinear regression (four parameters sigmoid fitted with variable slope, least squares fit, and no constraint) analysis using the GraphPad Prism 5 software (GraphPad Software, La Jolla, Calif.).

| SMILES | IC50 |
| --- | --- |
| CC#CC(=O)N1CC[C@H](S(=O)(=O)c2ccc(N3CC(F)(CN4CCC([C@@](CN5CCC5)(c5cccc(F)c5)[C@H]5CCC[C@@H]5NC(=O)OC)CC4)C3)c(F)c2)C1 [compound 194] | < 500 nM |
| C=CC(=O)N1CCOC[C@@H](S(=O)(=O)c2ccc(N3CC(F)(CN4CCC([C@@](CNC(=O)OC)(c5cccc(F)c5)[C@H]5CCC[C@@H]5NC(=O)OC)CC4)C3)c(F)c2)C1 [compound 180] | < 100 nM |

The next lines start with the values.

| IC50 | SMILES |
| --- | --- |
| < 10 nM | COC(=O)N[C@H]1CCC[C@@H]1[C@](CNC(C)=O)(c1cccc(F)c1)C1CCN(CC2CN(c3ccc(S(=O)(=O)C4CN(C(=O)/C=C/CN5CCCCC5)C4)cc3)C2)CC1 [compound 129] |
| < 10 nM | CC#CC(=O)N1CCC[C@H](S(=O)(=O)c2ccc(N3CC(F)(CN4CCC([C@@](CN5CCC5)(c5cccc(F)c5)[C@H]5CCC[C@@H]5NC(=O)OC)CC4)C3)c(F)c2)C1 [compound 192] |
| < 100 nM | C=CC(=O)Nc1cccc(S(=O)(=O)c2ccc(N3CC[C@@H](CN4CCC([C@@](CN5CCC5)(c5cccc(F)c5)[C@H]5CCC[C@@H]5NC(=O)OC)CC4)C3)cc2)c1 [compound 104] |
| < 10 nM | COC(=O)N[C@H]1CCC[C@@H]1[C@](CN1CCC1)(c1cccc(F)c1)C1CCN(CC2(F)CN(c3ccc(S(=O)(=O)C4CCCN(C(=O)NC/C=C/S(C)(=O)=O)C4)cc3F)C2)CC1 (stereo partly shown) [compound 123] |
| < 50 nM | COC(=O)N[C@H]1CCC[C@@H]1[C@](CN1CCC1)(c1cccc(F)c1)C1CCN(CC2CN(c3ccc(S(=O)(=O)[C@@H]4CCCN(C(=O)/C=C/CN5CCCCC5)C4)cc3)C2)CC1 [compound 204] |
| < 10 nM | C=CC(=O)N1CCC[C@@H](S(=O)(=O)c2ccc(N3CC(O)(CN4CCC([C@@](CN5CCC5)(c5cccc(F)c5)[C@H]5CCC[C@@H]5NC(=O)OC)CC4)C3)cc2)C1 [compound 195] |
| < 10 nM | CC#CC(=O)N1CC(S(=O)(=O)c2ccc(N3CC(O)(CN4CCC([C@@](CN5CCC5)(c5cccc(F)c5)[C@H]5CCC[C@@H]5NC(=O)OC)CC4)C3)cc2)C1 [compound 203] |
| < 50 nM | CC#CC(=O)N1CCCC(S(=O)(=O)c2ccc(N3CC(F)(CN4CCC([C@@](CN5CCC5)(c5cccc(F)c5)[C@H]5CCC[C@@H]5NC(=O)OC)CC4)C3)c(F)c2)C1 (stereo partly shown) [compound 109] |

Same assay, conditions: MV4-11 cells, 7 days

| IC50 | SMILES |
| --- | --- |
| < 50 nM | CC#CC(=O)N1CCCC(S(=O)(=O)c2ccc(N3CC(F)(CN4CCC([C@@](CN5CCC5)(c5cccc(F)c5)[C@H]5CCC[C@@H]5NC(=O)OC)CC4)C3)c(F)c2)C1 (stereo partly shown) [compound 114] |
| < 500 nM | C=CC(=O)N1CCC(S(=O)(=O)c2ccc(N3CC(F)(CN4CCC([C@@](CN5CCC5)(c5cccc(F)c5)[C@H]5CCC[C@@H]5NC(=O)OC)CC4)C3)c(F)c2)C1 (stereo partly shown) [compound 107] |
| < 50 nM | C=CC(=O)N1CCCC(S(=O)(=O)c2ccc(N3CC(F)(CN4CCC([C@@](CN5CCC5)(c5cccc(F)c5)[C@H]5CCC[C@@H]5NC(=O)OC)CC4)C3)c(F)c2)C1 (stereo partly shown) [compound 106] |

Source: patent US20210115018A1, “PIPERIDINE COMPOUNDS AS COVALENT MENIN INHIBITORS” (THE REGENTS OF THE UNIVERSITY OF MICHIGAN, priority 2018, published 2021)
